Laboratory results: patent US7449495B2, “Retinoid derivatives with antiangiogenic, antitumoral and proapoptotic activities” (Sigma-Tau Industrie Farmaceutiche Riunite S.p.A., priority 2001, dated 2008)

Assays:
[1] = system: HL60 acute promyelocytic leukaemia cell line; experiment: Cytotoxicity test (sulphorodamine B), HL-60; type: cell-based; details: Homo sapiens, 24 h incubation, survival 48 h after removal
Source text: To carry out the cytotoxicity tests, two acute promyelocytic leukaemia (APL) cell lines were used. • 1. Cell line NB4, carrying the chromosomal translocation t(15; 17) which generates the fusion protein PML/RARα. This cell line is extremely sensitive to the differentiating action of pharmaceutical doses of ATRA (10^−7-10^−6 M); • 2. Cell line HL60, which responds to ATRA less sensitively with respect to cell line NB4.
These cell lines were maintained in RPMI 1640 containing 10% foetal calf serum (FCS) and 1% glutamine.
The cytotoxicity tests were carried out using NB4 or HL-60 cells in suspension (10000/well). The cells were seeded in a volume of 250 μl in 96 well plates and incubated for 24 hours at 37° C. The following day, test compound ST 1926 [(2E)-3-[3′-(1-Adamantyl)-4′-hydroxy[1,1′-biphenyl]-4-yl]-2-propenoate/ic acid] was added at increasing concentrations, and the cells were incubated for a further 24 hours at 37° C. in a humidified atmosphere containing 5% CO2. On the 3rd day, the medium was removed by centrifuging the plate at 1600×g for 10 min and the supernatant decanted. […] The optical density was measured using a Multiskan spectrophotometer at 540 nm.
Cell survival was determined by incubation with ST1926 for 24 hours, 48 hours after the removal of the compound. […]

[2] = system: human ovarian carcinoma A2780; experiment: Antitumoral activity in human ovarian carcinoma model A2780; type: in vivo, CD1 nu/nu mice; details: qdx5x3w
Method: (§1) The human ovarian carcinoma cells A2780, A2780/Dx and NCIH460 were maintained in RPMI-1640 containing 10% FCS, 2 mM glutamine, 50 μg/ml gentamicin, at 37° C. in a humidified atmosphere containing 5% CO2. The cells were trypsinised, collected in complete medium, centrifuged at approx. 1100 rpm for 10 minutes and the precipitate resuspended in Hank's 199 Medium; this operation was carried out twice. The cells were resuspended in Hank's 199 Medium at a density of 20×10^6/ml and 0.1 ml (equal to 2×10^6 cells/mouse) were injected s.c. into the right flank of CD1 nu/nu 6 week-old, female mice.
(§2) The ST1926 solution was prepared immediately before use and solubilised in cremophor:ethanol 1:1 and subsequently diluted 1:4 in buffered saline solution. The animal treatments were administered in a volume of 10 ml/kg. The treatment protocol for ST1926 at different doses was for 5 consecutive days (qd×5), beginning one day following tumor cell inoculation and repeated for 3 cycles. Measurements of tumor dimensions were performed using a digital calliper (Vernier Caliper) twice weekly, from the time in which the mass was measurable. The tumor mass was evaluated from the size of the two principal dimensions (length and breadth), expressed in mm, applying the formula (length×breadth^2)/2, that is, the tumor volume in mm3. For each experimental group, the percentage of tumor volume inhibition was calculated (TVI %), with respect to the control, namely (100−(T/C %). TVI was evaluated 2 days after the final administration of ST1926.
(§3) The mice were measured until the control group tumors had reached a weight of 2 g, then the mice were sacrificed by cervical dislocation.
(§4) A comparison between the TVI values obtained for each group was performed using the non parametric Mann Whitney test for non-paired data, using the Instat software from GraphPad inc.
(§5) The mice were weighed prior to each treatment, firstly, so as to be able to administer the correct quantity of substance based on the possible changes in weight observed throughout the course of administration of the drug, and also to record the maximum weight loss throughout the treatment (BWL % max).

[3] = system: multidrug-resistant human ovarian carcinoma A2780/Dx; experiment: Antitumoral activity in human ovarian carcinoma model A2780/Dx; type: in vivo, CD1 nu/nu mice; details: qdx5x3w
Method: as §1, §2, §3, §4, §5

[4] = system: chicken chorioallantoic membrane vessels, bFGF induced; experiment: Angiostatic activity in chicken chorioallantoic membrane (CAM) model; type: in vivo; details: bFGF 0.05 + compound 0.25 μg/embryo
Source text: The chicken chorioallantoic membrane is a very vascularised membrane in which the vessels make their appearance at the 4th day of development, develop an arteriovenal system by the 8th day of development, and actively proliferate until the 11th day.
The aim of the study was to follow vasal development in the CAM under basal conditions and in the presence of an inducer bFGF (basic Fibroblast Growth Factor) of vasoproliferation. This study used chicken embryonal eggs at the initial stage of their development. On the 3rd day of development an operation to open the shells was performed to make the vessels of the CAM visible. The treatment was administered on the 9th day of development by applying a fragment of sterile gelatine (GELFOAM Pharmacia-Upjohn) about 1 mm^3, to the CAM surface, onto which was administered the bFGF (50 ng/embryo) or the products in question, for 3 consecutive days.
The evaluation of the effect of the molecule on vasoproliferation was obtained by a comparison of the vessels at the time of zero treatment with these of later times (12th day).

[5] = system: human microvascular endothelial (HMVE) cells; details: after 96 h of treatment, cited from earlier work
[6] = system: KG-1 and HL-60R leukemia and MDA-MB-231 breast cancer cells; details: cited from earlier work

O=C(O)/C=C/c1ccc(-c2ccc(O)c(C34CC5CC(CC(C5)C3)C4)c2)cc1 [ST1926, E-4-(3-(1-adamantyl)-4-hydroxyphenyl)cinnamic acid]
IC50 [1]: 0.2 µM
BWL % Max ([2]; A2780, 5 mg/kg p.o.): 3%
Lethality ([2]; A2780, 5 mg/kg p.o.): 0/8
TVI % ± SE ([2]; A2780, 5 mg/kg p.o.): *34 ± 8%
BWL % Max ([2]; A2780, 10 mg/kg p.o.): 5%
Lethality ([2]; A2780, 10 mg/kg p.o.): 0/8
TVI % ± SE ([2]; A2780, 10 mg/kg p.o.): *39 ± 5%
BWL % Max ([3]; 10 mg/kg po): 0%
Lethality ([3]; 10 mg/kg po): 0/8
TVI % ± SE ([3]; 10 mg/kg po): *34 ± 3%
BWL % Max ([3]; 15 mg/kg po): 6%
Lethality ([3]; 15 mg/kg po): 0/8
TVI % ± SE ([3]; 15 mg/kg po): *54 ± 9%
Δvessels, change vs bFGF alone [4]: (−53%)
12th day (72 hours), number of vessels per sponge ([4]; mean ± SE): 12 ± 2 vessels per sponge
Δvessels ([4]; mean ± SE): 9 ± 2 vessels per sponge
inhibition (%) at 0.5 μM ([5]; 0.5 μM, relative to vehicle alone control): 90%
IC50 ([5]; highest concentration evaluated 0.5 μM, read-out: IC50 (concentration inhibiting proliferation by 50%)): 0.1 µM
induction of cancer cell apoptosis (in words) [6]: effectively induced cancer cell apoptosis
